Results from ChEMBL document CHEMBL1201862, “PubChem BioAssay data set” (2004).
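The compound was tested at five concentrations on cells cultured in 96-well plates, with a 48-hour exposure period. Abbreviation: GI50, concentration required for 50% inhibition of growth.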 The source made the active and inactive calls. No stated cut-off is given here; in the data, active = GI50 up to about 1.1 µM and inactive = higher.

Legend:
Experiment in all cases: NCI tumour cell line growth inhibition, 48 h
NCI/ADR-RES = system: NCI/ADR-RES
UACC-257 = system: UACC-257
KM12 = system: KM12
SK-MEL-28 = system: SK-MEL-28
NCI-H226 = system: NCI-H226
SK-MEL-2 = system: SK-MEL-2
TK-10 = system: TK-10
OVCAR-8 = system: OVCAR-8
OVCAR-5 = system: OVCAR-5
HOP-92 = system: HOP-92
Malme-3M = system: Malme-3M
IGROV-1 = system: IGROV-1
SN12C = system: SN12C
SF-268 = system: SF-268
SK-OV-3 = system: SK-OV-3
A498 = system: A498
UACC-62 = system: UACC-62
ACHN = system: ACHN
MOLT-4 = system: MOLT-4
NCI-H23 = system: NCI-H23

| Structure (SMILES) | GI50 (NCI/ADR-RES) | GI50 (UACC-257) | GI50 (KM12) | GI50 (SK-MEL-28) | GI50 (NCI-H226) | GI50 (SK-MEL-2) | GI50 (TK-10) | GI50 (OVCAR-8) | GI50 (OVCAR-5) | GI50 (HOP-92) | GI50 (Malme-3M) | GI50 (IGROV-1) | GI50 (SN12C) | GI50 (SF-268) | GI50 (SK-OV-3) | GI50 (A498) | GI50 (UACC-62) | GI50 (ACHN) | GI50 (MOLT-4) | GI50 (NCI-H23) |
| --- | --- | --- | --- | --- | --- | --- | --- | --- | --- | --- | --- | --- | --- | --- | --- | --- | --- | --- | --- | --- |
| CC(C)=CCC/C(C)=C/CC/C(C)=C/CC(CO)N(C)CC/C=C(\C)CCC=C(C)C (stereo not given) | 4.62 µM (inactive) | 5.2 µM (inactive) | 3.94 µM (inactive) | 5.87 µM (inactive) | 13.7 µM (inactive) | 14.3 µM (inactive) | 9.53 µM (inactive) | 7 µM (inactive) | 7.13 µM (inactive) | 2.7 µM (inactive) | 2.99 µM (inactive) | 3.1 µM (inactive) | 4.54 µM (inactive) | 13.3 µM (inactive) | 14.9 µM (inactive) | 14.9 µM (inactive) | 16.1 µM (inactive) | 11.6 µM (inactive) | 2.39 µM (inactive) | 7.96 µM (inactive) |
| O=C1C(=O)c2c(oc(=O)c3ccccc23)-c2ccccc21 | 22.9 µM (inactive) | > 25 µM (inactive) | > 25 µM (inactive) | > 25 µM (inactive) | > 25 µM (inactive) | > 25 µM (inactive) | > 25 µM (inactive) | 16.4 µM (inactive) | > 25 µM (inactive) | 15.3 µM (inactive) | 8.93 µM (inactive) | > 25 µM (inactive) | 14.5 µM (inactive) | > 25 µM (inactive) | > 25 µM (inactive) | > 25 µM (inactive) | > 25 µM (inactive) | > 25 µM (inactive) | > 25 µM (inactive) | 18 µM (inactive) |
| COC(=O)CCc1cc(O)c2c(c1)C(C(=O)OC)C(c1ccc(O)c(O)c1)O2 (stereo not given) | 42.3 µM (inactive) | > 48.2 µM (inactive) | 3.88 µM (inactive) | 8.93 µM (inactive) | 26.4 µM (inactive) | 3.39 µM (inactive) | 53.1 µM (inactive) | 21.8 µM (inactive) | > 65.5 µM (inactive) | 44 µM (inactive) | 6.97 µM (inactive) | 12.1 µM (inactive) | 21.9 µM (inactive) | 16.3 µM (inactive) | 33.6 µM (inactive) | > 44.9 µM (inactive) | 8.15 µM (inactive) | 33.7 µM (inactive) | 5.09 µM (inactive) | 26.6 µM (inactive) |
| Cn1ncc2c(Nc3cccc(Cl)c3)nc(Nc3cccc(Cl)c3)nc21 | 9.71 µM (inactive) | 8.73 µM (inactive) | 4.9 µM (inactive) | 14.8 µM (inactive) | > 48.3 µM (inactive) | 14.9 µM (inactive) | 11.5 µM (inactive) | 10.9 µM (inactive) | 16.1 µM (inactive) | 10.9 µM (inactive) | 17.6 µM (inactive) | 12.2 µM (inactive) | 20.7 µM (inactive) | 14.1 µM (inactive) | 20 µM (inactive) | 5.98 µM (inactive) | 13.7 µM (inactive) | 10.5 µM (inactive) | 4.68 µM (inactive) | 16.3 µM (inactive) |
| CCC(C)C1NC(=O)C(NC(=O)C(CC(C)C)N(C)C(=O)[C@@H]2CC(O)CN2C(=O)[C@H](C)O)C(C)OC(=O)[C@H](Cc2ccc(OC)cc2)N(C)C(=O)[C@@H]2CCCN2C(=O)[C@H](CC(C)C)NC(=O)C(C)C(=O)[C@H](C(C)C)OC(=O)CC1O (stereo not given in full) | 6.84 µM (inactive) | 0.276 µM (active) | 0.035 µM (active) | 0.0462 µM (active) | 0.0641 µM (active) | 0.0621 µM (active) | 0.676 µM (active) | 0.406 µM (active) | 0.265 µM (active) | 0.255 µM (active) | 0.0664 µM (active) | 0.181 µM (active) | 0.147 µM (active) | 0.153 µM (active) | 0.179 µM (active) | 0.759 µM (active) | 0.0542 µM (active) | 0.351 µM (active) | 0.102 µM (active) | 0.0169 µM (active) |
| O=C(CCCl)NN=C1NCCCN1 | > 100 µM (inactive) | > 100 µM (inactive) | > 100 µM (inactive) | > 100 µM (inactive) | > 100 µM (inactive) | > 100 µM (inactive) | > 100 µM (inactive) | > 100 µM (inactive) | > 100 µM (inactive) | > 100 µM (inactive) | > 100 µM (inactive) | > 100 µM (inactive) | > 100 µM (inactive) | > 100 µM (inactive) | > 100 µM (inactive) | > 100 µM (inactive) | > 100 µM (inactive) | > 100 µM (inactive) | > 100 µM (inactive) | > 100 µM (inactive) |
| Cc1ccc(N2CN3OC(=O)N(c4ccccc4)[C@@]3(c3ccccc3)C2)cc1 | 29 µM (inactive) | 26.6 µM (inactive) | 33.9 µM (inactive) | > 100 µM (inactive) | 27 µM (inactive) | 19.9 µM (inactive) | 50.5 µM (inactive) | 57 µM (inactive) | > 100 µM (inactive) | 16.9 µM (inactive) | 34 µM (inactive) | 33 µM (inactive) | 42.2 µM (inactive) | 50.7 µM (inactive) | 40.6 µM (inactive) | 32.1 µM (inactive) | 21.2 µM (inactive) | 39.4 µM (inactive) | 35.1 µM (inactive) | 24.2 µM (inactive) |
| CC(C)[Si]1(C(C)C)OCC2OC(n3ccc(=O)[nH]c3=O)C(O)(CO)C2O[Si](C(C)C)(C(C)C)O1 (stereo not given) | 16 µM (inactive) | 15.3 µM (inactive) | 16.5 µM (inactive) | 19.3 µM (inactive) | 21.2 µM (inactive) | 16.7 µM (inactive) | 17.4 µM (inactive) | 15.5 µM (inactive) | 15.9 µM (inactive) | 10.5 µM (inactive) | 15 µM (inactive) | 11.6 µM (inactive) | 15.8 µM (inactive) | 13.8 µM (inactive) | 16.4 µM (inactive) | 20.7 µM (inactive) | 15.8 µM (inactive) | 17.1 µM (inactive) | 12.3 µM (inactive) | 3.62 µM (inactive) |
| CC(C)=CCc1c(O)c(CC=C(C)C)c2oc(-c3ccc(O)cc3O)c(CC=C(C)C)c(=O)c2c1O | 12.3 µM (inactive) | 12.5 µM (inactive) | 5.57 µM (inactive) | 12.2 µM (inactive) | 23 µM (inactive) | 3.66 µM (inactive) | 8.85 µM (inactive) | 4.88 µM (inactive) | 14.8 µM (inactive) | 8.26 µM (inactive) | 16.3 µM (inactive) | 10.6 µM (inactive) | 8.59 µM (inactive) | 9.16 µM (inactive) | 13.3 µM (inactive) | 13.8 µM (inactive) | 7.14 µM (inactive) | 7.62 µM (inactive) | 3.33 µM (inactive) | 5.56 µM (inactive) |
| CC(C)/C(=N\[N+](C)(C)C)c1ccccc1 | > 100 µM (inactive) | > 100 µM (inactive) | > 100 µM (inactive) | > 100 µM (inactive) | > 100 µM (inactive) | > 100 µM (inactive) | > 100 µM (inactive) | > 100 µM (inactive) | > 100 µM (inactive) | 69.3 µM (inactive) | > 100 µM (inactive) | > 100 µM (inactive) | > 100 µM (inactive) | > 100 µM (inactive) | > 100 µM (inactive) | > 100 µM (inactive) | > 100 µM (inactive) | > 100 µM (inactive) | > 100 µM (inactive) | > 100 µM (inactive) |
| NC(=O)c1[nH]nc(C2OC(CO)C(O)C2O)c1O (stereo not given) | 2.68 µM (inactive) | 966 µM (inactive) | 10.4 µM (inactive) | 328 µM (inactive) | 181 µM (inactive) | 84.7 µM (inactive) | 91.6 µM (inactive) | 0.5 µM (active) | 183 µM (inactive) | 30.5 µM (inactive) | 368 µM (inactive) | 0.776 µM (active) | 3.18 µM (inactive) | 4.57 µM (inactive) | 84.3 µM (inactive) | 60.5 µM (inactive) | 4.38 µM (inactive) | 0.5 µM (active) | 0.561 µM (active) | 9.59 µM (inactive) |
